Measurements: patent US10398706B2, “Heteroaryldiazepine derivatives as RSV inhibitors” (Enanta Pharmaceuticals, Inc., priority 2017, dated 2019)

tested on: Human RSV-A (“Long” strain); test: RSV-A in vitro cytoprotection assay in HEp-2 cells (ATPlite readout); type: cell-based, Human respiratory syncytial virus; settings: HEp-2 cells, 4-day incubation, ATPlite cell viability; read-out: Human RSV-A (“Long” strain) EC50
Source text: RSV is a single stranded negative sense RNA virus that causes respiratory tract infections which can be dangerous to infants, the elderly, and immunosuppressed individuals. Currently there is no vaccine, and therapeutic options are both costly and of limited effectiveness. These approved treatments are Ribavirin, and Palivizumab/Synagis (a monoclonal antibody). RSV has two genotypes, A and B, which differ primarily in the structure of the virus' surface “G” attachment protein. Our current primary screen focusses on RSV-A and uses an in vitro cytoprotection assay where compounds are added in 2-fold dilutions to cells which are then subjected to fully replicative viral particles. Cell viability is measured several days later along with separate measurements of compound cytotoxicity. This report focuses on the results of our most recent screening of compounds.
HEp-2 cells, (originally derived from tumors grown in irradiated-cortisonised weanling rats that had been injected with epidermoid carcinoma tissue from a person's larynx, but later found to be indistinguishable from HeLa cells by PCR DNA analysis), were used for the culturing of genotype A, “Long” strain RSV. Flasks were inoculated with RSV and viral stocks were collected once cytopathic effect (CPE) was greater than 90%. Viral stocks in 25% sucrose media were snap frozen using liquid nitrogen to increase viral stability. Viral stock titers were quantified by tissue culture infectious dose 50% (TCID50) using 8,000 cells per well and 3-fold viral dilutions across a 96-well plate, cultured for 4 days.
Following extensive parameter testing, the final assay is run as follows: HEp-2 cells are seeded into the inner 60 wells of a 96-well plate at 8,000 cells per well in a volume of 50 μL using Growth Media (DMEM without phenol red, 1% L-Glut, 1% Penn/Strep, 1% nonessential amino acids, 10% FBS). 2-fold serial dilutions of control and test compounds are added to the wells in duplicate in a total volume of 25 μL. Viral stock is then added to the wells in a volume of 25 μL, bringing the total volume of each well to 100 μL. Each 96-well plate has a control column of 6 wells with cells and virus but no compound (negative control, max CPE), a column with cells but no compound or virus (positive control, minimum CPE), and a column with no cells or virus or compound (background plate/reagent control). The control wells with cells but no virus are given an additional 25 uL of growth media containing an equal quantity of sucrose as those wells receiving the viral stock in order to keep consistent in media and volume conditions. The outer wells of the plate are filled with 125 μL of growth media to act as a thermal and evaporative moat around the test wells. Following a 4-day incubation period, the plates are read using ATPlite (50 uL added per well), which quantifies the amount of ATP (a measure of cell health) present in each well. Assay plates are read using the Envision luminometer. […] EC50 ranges are as follows: A<0.4 μM; B 0.4-0.8 μM; C>0.8 μM.

Compared with `Cc1cc2c(s1)NC(=O)[C@@H](Nc1nnc(-c3ncc(C(F)(F)F)cc3N3CCOCC3)o1)N=C2c1ccccc1` [Example 6], `Cc1sc2c(c1C)C(c1ccccc1)=N[C@H](Nc1nnc(-c3ncc(C(F)(F)F)cc3N3CCOCC3)o1)C(=O)N2` [Example 8] is higher in EC50: under 0.4 µM for the first, 0.4 to 0.8 µM for the second.

same assay, conditions: human respiratory syncytial virus, HEp-2, 96 h, read-out: Human RSV-A (“Long” strain) EC50

`O=C1Nc2cnccc2C(c2ccccc2)=NC1Nc1nnc(-c2ccc(F)cc2)o1` (stereo not shown) [Example 3] and `O=C1Nc2ncccc2C(c2ccccc2)=NC1Nc1nnc(-c2ccc(F)cc2)o1` (stereo not shown) [Example 2] cannot be ordered by EC50: over 0.8 µM for the first, over 0.8 µM for the second.

`O=C1Nc2sccc2C(c2ccccc2)=NC1Nc1nnc(-c2ncc(C(F)(F)F)cc2N2CCOCC2)o1` (stereo not shown) [Example 5] and `O=C1Nc2ccsc2C(c2ccccc2)=NC1Nc1nnc(-c2ncc(C(F)(F)F)cc2N2CCOCC2)o1` (stereo not shown) [Example 4] fall in the same range of EC50: 0.4 to 0.8 µM for the first, 0.4 to 0.8 µM for the second.

Work on `O=C1Nc2cccnc2C(c2ccccc2)=NC1Nc1nnc(-c2ccccc2)o1` (stereo not shown) [Example 1] yielded an EC50 of over 0.8 µM.
